Results from US8975246B2, “Bile acid or bile salt fatty acid conjugates” (Galmed Research and Development Ltd., priority 2001, dated 2015).

What was measured:
Type in all cases: in vivo
[1] = tested on: Golden Syrian Male Hamsters; experiment: Fasting blood glucose, hamsters on fatty liver diet (NIDDM model); conditions: BAFAC 150 mg/kg/day by gavage, 3 weeks, vs saline
Procedure: The effects of BAFACs on fasting blood glucose were tested in 3 animal species: Hamsters, Rats and Mice. The animals were kept on regular or high fat diets (as specified). In each group half of the animals received a daily BAFAC dose (150 mg/kg) dispersed in 0.5 ml of saline by gavage. The other half received similarly, by gavage, an equal volume of saline only. All animals were kept on a 12 hr day/night cycle at 22° C. throughout the experiment. They had access to water ad libidum.
Golden Syrian male hamsters 4 weeks old (90-100 gm) were fed a fatty liver diet consisting of cholesterol (1%), palmitic acid (1.2%), butter (6%), lard (10%), and corn oil (2%) added (w/w) to their regular diet. Blood glucose was measured at sacrifice in the fasting state after 3 weeks of the trial. There were 5 control and 5 test animals.
The hamsters and rats on the high fat diets developed fatty liver (confirmed by chemical measurement of liver fat), a high fasting blood glucose, and represented models of NIDDM.
ICR male mice, 4 weeks old (approx. 20 gm) were fed a regular diet. Streptozotocin 200 mg/kg was injected i.p. on the first day of the experiment. (This induced damage to the islet cells of the pancreas and simulated IDDM). Fasting blood glucose was obtained from sacrificed animals after 16 days of the trial. There were 3 groups of 7 animals each. Controls—regular diet only. […]

human patients [2] = experiment: Human study: change in HOMA (insulin resistance); conditions: for Change in HOMA from Baseline, Max / Change in HOMA from Baseline, Mean / Change in HOMA from Baseline, Median / Change in HOMA from Baseline, Min: 3 months
Procedure: (§1) The effects of BAFACs on disorders associated with Fatty liver, insulin resistance and altered glucose metabolism were tested on 60 human patients. Experiments were subdivided to 2 dosage regimens: Aramchol 300 mg daily (high dose) and 100 mg daily (low dose) respectively for a total period time of 3 months. The Aramchol:placebo ratio is of 2:1 for the low dose arm, and 1:1 for the high dose arms.
(§2) The study period included a 3 month treatment period with Aramchol low dose, or Aramchol high dose, or placebo, and a one month follow-up period. Aramchol was given daily orally. During the treatment period, all patients attended periodic […] (at first month) and subsequently monthly study-center visits in order to assess safety and efficacy of the treatment.
(§3) The results are shown using two known in the art principle statistical evaluation on, Intention-To-Treat (ITT) and Per Protocol (PP) populations. The ITT principle asserts that the effect of a treatment policy can be best assessed by evaluation on the basis of the intention to treat a subject (i.e. the planned treatment regimen) rather than the actual treatment given. It has the consequence that subjects allocated to a treatment group should be followed up, assessed and analyzed as members of that group irrespective of their compliance to the planned course of treatment. […] Compliance covers such considerations as exposure to treatment, availability of measurements and absence of major protocol violations.
Homeostatic model assessment (HOMA) is a method used to quantify insulin resistance and beta-cell function. The Dunnett method is used for multiple comparisons with a control group, and adjusts the data by age, gender, diagnosis, baseline HbA1c and baseline weight.

human patients [3] = experiment: Human study: change in glucose; parameters: Change from Baseline in Glucose, Mean / Change from Baseline in Glucose, Median / Change from Baseline in Glucose, Max: unit not given here
Procedure: as §1, §2, §3

human patients [4] = experiment: Human study: change in weight; parameters: Change in Weight, Mean / Change in Weight, Median / Change in Weight, Max: unit not given here; conditions: for Change in Weight, Max / Change in Weight, Mean / Change in Weight, Median / Change in Weight, Min: 3 months
Procedure: as §1, §2, §3

[5] = Aramchol 100 mg/d, Visit 3, ITT
[6] = Aramchol 100 mg/d, Visit 4, ITT
[7] = Aramchol 100 mg/d, Visit 5, ITT
[8] = Aramchol 100 mg/d, Visit 6, ITT
[9] = Aramchol 100 mg/d, Visit 7, ITT
[10] = Aramchol 300 mg/d, Visit 3, ITT
[11] = Aramchol 300 mg/d, Visit 4, ITT
[12] = Aramchol 300 mg/d, Visit 5, ITT
[13] = Aramchol 300 mg/d, Visit 6, ITT
[14] = Aramchol 300 mg/d, Visit 7, ITT

For `CCCCCCCCCCCCCCCCCCCC(=O)N[C@H]1CC[C@@]2(C)[C@@H](C1)C[C@@H](O)[C@@H]1[C@@H]2C[C@H](O)[C@]2(C)[C@@H]([C@H](C)CCC(=O)O)CC[C@@H]12` [Aramchol, 3β-arachidylamido-7α,12α-dihydroxy-5β-cholan-24-oic acid], the fasting blood glucose [1] was “markedly reduced”, the “Change in HOMA from Baseline, Max” value (human patients [2]; Aramchol 100 mg/d oral, ITT) was 11.70 and the “Change in HOMA from Baseline, Mean” value (human patients [2]; Aramchol 100 mg/d oral, ITT) was 1.25. For the same molecule, the “Change in HOMA from Baseline, Median” value (human patients [2]; Aramchol 100 mg/d oral, ITT) was 0.20, the “Change in HOMA from Baseline, Min” value (human patients [2]; Aramchol 100 mg/d oral, ITT) was −2.00 and the “Change in HOMA from Baseline, Max” value (human patients [2]; Aramchol 100 mg/d oral, PP) was 11.70. For the same molecule, the “Change in HOMA from Baseline, Mean” value (human patients [2]; Aramchol 100 mg/d oral, PP) was 1.13, the “Change in HOMA from Baseline, Median” value (human patients [2]; Aramchol 100 mg/d oral, PP) was 0.20 and the “Change in HOMA from Baseline, Min” value (human patients [2]; Aramchol 100 mg/d oral, PP) was −2.00. For the same molecule, the “Change in HOMA from Baseline, Max” value (human patients [2]; Aramchol 300 mg/d oral, ITT) was 2.80, the “Change in HOMA from Baseline, Mean” value (human patients [2]; Aramchol 300 mg/d oral, ITT) was −7.74 and the “Change in HOMA from Baseline, Median” value (human patients [2]; Aramchol 300 mg/d oral, ITT) was 0.20. For the same molecule, the “Change in HOMA from Baseline, Min” value (human patients [2]; Aramchol 300 mg/d oral, ITT) was −139.60, the “Change in HOMA from Baseline, Max” value (human patients [2]; Aramchol 300 mg/d oral, PP) was 2.80 and the “Change in HOMA from Baseline, Mean” value (human patients [2]; Aramchol 300 mg/d oral, PP) was −7.74. For the same molecule, the “Change in HOMA from Baseline, Median” value (human patients [2]; Aramchol 300 mg/d oral, PP) was 0.20, the “Change in HOMA from Baseline, Min” value (human patients [2]; Aramchol 300 mg/d oral, PP) was −139.60 and the “insulin resistance (in words)” value (human patients [2]; Aramchol 300 mg/d, tested subjects, Tables 3 and 4) was “reduces insulin resistance”. The “Change from Baseline in Glucose, Max” value (human patients [3]; [5]) was 17.0, the “Change from Baseline in Glucose, Mean” value (human patients [3]; [5]) was −2.0 and the “Change from Baseline in Glucose, Median” value (human patients [3]; [5]) was 0.0. The “Change from Baseline in Glucose, Min” value (human patients [3]; [5]) was −38.0, the “Change from Baseline in Glucose, Max” value (human patients [3]; [6]) was 16.0 and the “Change from Baseline in Glucose, Mean” value (human patients [3]; [6]) was −2.2. The “Change from Baseline in Glucose, Median” value (human patients [3]; [6]) was 1.0, the “Change from Baseline in Glucose, Min” value (human patients [3]; [6]) was −33.0 and the “Change from Baseline in Glucose, Max” value (human patients [3]; [7]) was 21.0. The “Change from Baseline in Glucose, Mean” value (human patients [3]; [7]) was −1.0, the “Change from Baseline in Glucose, Median” value (human patients [3]; [7]) was 0.5 and the “Change from Baseline in Glucose, Min” value (human patients [3]; [7]) was −30.0. For the same molecule, the “Change from Baseline in Glucose, Max” value (human patients [3]; [8]) was 39.0, the “Change from Baseline in Glucose, Mean” value (human patients [3]; [8]) was −1.1 and the “Change from Baseline in Glucose, Median” value (human patients [3]; [8]) was −2.0. For the same molecule, the “Change from Baseline in Glucose, Min” value (human patients [3]; [8]) was −32.0, the “Change from Baseline in Glucose, Max” value (human patients [3]; [9]) was 23.0 and the “Change from Baseline in Glucose, Mean” value (human patients [3]; [9]) was 0.8. The “Change from Baseline in Glucose, Median” value (human patients [3]; [9]) was −1.0, the “Change from Baseline in Glucose, Min” value (human patients [3]; [9]) was −41.0 and the “Change from Baseline in Glucose, Max” value (human patients [3]; [10]) was 19.0. The “Change from Baseline in Glucose, Mean” value (human patients [3]; [10]) was −1.3, the “Change from Baseline in Glucose, Median” value (human patients [3]; [10]) was 1.0 and the “Change from Baseline in Glucose, Min” value (human patients [3]; [10]) was −32.0. For the same molecule, the “Change from Baseline in Glucose, Max” value (human patients [3]; [11]) was 16.0, the “Change from Baseline in Glucose, Mean” value (human patients [3]; [11]) was −2.4 and the “Change from Baseline in Glucose, Median” value (human patients [3]; [11]) was −1.5. For the same molecule, the “Change from Baseline in Glucose, Min” value (human patients [3]; [11]) was −24.0, the “Change from Baseline in Glucose, Max” value (human patients [3]; [12]) was 18.0 and the “Change from Baseline in Glucose, Mean” value (human patients [3]; [12]) was −3.3. For the same molecule, the “Change from Baseline in Glucose, Median” value (human patients [3]; [12]) was −5.0, the “Change from Baseline in Glucose, Min” value (human patients [3]; [12]) was −46.0 and the “Change from Baseline in Glucose, Max” value (human patients [3]; [13]) was 13.0. The “Change from Baseline in Glucose, Mean” value (human patients [3]; [13]) was −2.0, the “Change from Baseline in Glucose, Median” value (human patients [3]; [13]) was −2.5 and the “Change from Baseline in Glucose, Min” value (human patients [3]; [13]) was −22.0. The “Change from Baseline in Glucose, Max” value (human patients [3]; [14]) was 82.0, the “Change from Baseline in Glucose, Mean” value (human patients [3]; [14]) was 3.8 and the “Change from Baseline in Glucose, Median” value (human patients [3]; [14]) was 3.0. For the same molecule, the “Change from Baseline in Glucose, Min” value (human patients [3]; [14]) was −22.0, the “glucose levels (in words)” value (human patients [3]; Aramchol 300 mg/d, tested subjects, Table 7) was “remarkably reduces glucose levels” and the “Change in Weight, Max” value (human patients [4]; Aramchol 100 mg/d oral, ITT) was 4.00. The “Change in Weight, Mean” value (human patients [4]; Aramchol 100 mg/d oral, ITT) was 0.18, the “Change in Weight, Median” value (human patients [4]; Aramchol 100 mg/d oral, ITT) was 0.00 and the “Change in Weight, Min” value (human patients [4]; Aramchol 100 mg/d oral, ITT) was −5.00. The “Change in Weight, Max” value (human patients [4]; Aramchol 100 mg/d oral, PP) was 4.00, the “Change in Weight, Mean” value (human patients [4]; Aramchol 100 mg/d oral, PP) was 0.08 and the “Change in Weight, Median” value (human patients [4]; Aramchol 100 mg/d oral, PP) was 0.00. The “Change in Weight, Min” value (human patients [4]; Aramchol 100 mg/d oral, PP) was −5.00, the “Change in Weight, Max” value (human patients [4]; Aramchol 300 mg/d oral, ITT) was 3.50 and the “Change in Weight, Mean” value (human patients [4]; Aramchol 300 mg/d oral, ITT) was −1.15. The “Change in Weight, Median” value (human patients [4]; Aramchol 300 mg/d oral, ITT) was −1.25, the “Change in Weight, Min” value (human patients [4]; Aramchol 300 mg/d oral, ITT) was −4.40 and the “Change in Weight, Max” value (human patients [4]; Aramchol 300 mg/d oral, PP) was 3.50. For the same molecule, the “Change in Weight, Mean” value (human patients [4]; Aramchol 300 mg/d oral, PP) was −1.15, the “Change in Weight, Median” value (human patients [4]; Aramchol 300 mg/d oral, PP) was −1.25 and the “Change in Weight, Min” value (human patients [4]; Aramchol 300 mg/d oral, PP) was −4.40. The “body weight (in words)” value (human patients [4]; Aramchol 300 mg/d, tested subjects, Tables 9 and 10) was “reduces body weight”.
